# Read-outs that look alike come from different tables or passages of the source.
# Experiments:
# [1] = system: zebrafish of tup background; experiment: DMSO tolerance of zebrafish; type: in vivo
# Method: Zebrafish of tup background were tested in batches of 10. DMSO was added to fish water on day 3 and fish examined daily up to day 9. […] Motoric behaviour was also normal.
# [2] = system: epilepsy induced in the fish; experiment: anti-seizure effect in fish with induced epilepsy; type: in vivo; details: concentration in fish water
# From the text: Continuing with the example of epilepsy by way of illustration, in embodiments of this aspect of the present invention a known drug may be administered to the fish, for example sodium valproate. Epilepsy is then induced in the fish. Additional test substances, such as candidate chemicals, or genetic mutation may then be applied to the fish and assessed for their anti-epileptogenic effect. […] Any combination of these and/or other drugs or test substances may be arrayed in every possible combination and tested for synergistic efficacy. Appropriate doses vary from 1 nM to 100 mM, e.g. 0.1 μM to 10 mM, with 100 uM being a reasonable starting concentration to assess.
# [3] = system: interleukin 11 transgene (tetracycline inducible system); details: mouse, in vivo; cited from earlier work
# fish reared in nicotine [4] = system: fish reared in nicotine
# Method: (§1) Fish were reared in nicotine from 2 dpf (immediately after hatching) to 7 d.p.f. at concentrations (in the fish water) of 0.5, 2.5, 5, 25, 50 ug/ml (5 fish per test group). The nicotine medium was then removed and replaced with E3M (embryo medium) at 7 d.p.f. They were then challenged at 8 d.p.f. with 2.5 ug/ml nicotine in 3% methyl cellulose.
# Details of the toxicity dose/response experiment are given below: […]
# fish reared in nicotine [5] = details: for fish attracted to nicotine impregnated methyl cellulose: previously bathed at 5 ug/ml, 5 fish per group; for response/preference to nicotine: challenged 8 d.p.f. with 2.5 ug/ml nicotine in 3% methyl cellulose
# Method: as §1
# [6] = 1% DMSO (10 ul/ml), added day 3, examined daily up to day 9
structure (smiles),measurement,setting,value
"C[S+](C)[O-] [DMSO, dimethyl sulphoxide]",abnormality on detailed examination under dissecting microscope,[1]; [6],no abnormality was detected
same,motoric behaviour,[1]; [6],normal
same,DMSO concentration zebrafish can tolerate,[1]; final concentration in fish water,1%
CN1C(=O)CN=C(c2ccccc2)c2cc(Cl)ccc21 [diazepam],concentration showing therapeutic effects in monotherapy,[2],35 µM
C[C@H]1c2cccc(O)c2C(=O)C2=C(O)[C@]3(O)C(=O)C(C(N)=O)=C(O)[C@@H](N(C)C)[C@@H]3[C@@H](O)[C@@H]21 [doxycycline],"toxicity to embryos treated in utero, pups or adults",[3],no apparent toxicity
CN1CCCC1c1cccnc1 (stereo not shown) [nicotine],escape response when prodded,"fish reared in nicotine [4]; 0.5 ug/ml, 3 d.p.f.",escape response as above
same,survival,"fish reared in nicotine [4]; 0.5 ug/ml, 3 d.p.f.",all alive
same,escape response when prodded,"fish reared in nicotine [4]; 0.5 ug/ml, 4 d.p.f.",escape response as above
same,survival,"fish reared in nicotine [4]; 0.5 ug/ml, 4 d.p.f.",all alive
same,escape response when prodded,"fish reared in nicotine [4]; 2.5 ug/ml, 3 d.p.f.",escape response as above
same,survival,"fish reared in nicotine [4]; 2.5 ug/ml, 3 d.p.f.",all alive
same,escape response when prodded,"fish reared in nicotine [4]; 2.5 ug/ml, 4 d.p.f.",escape response as above
same,survival,"fish reared in nicotine [4]; 2.5 ug/ml, 4 d.p.f.",all alive
same,escape response when prodded,"fish reared in nicotine [4]; 5.0 ug/ml, 3 d.p.f.",escape response as above
same,survival,"fish reared in nicotine [4]; 5.0 ug/ml, 3 d.p.f.",all alive
same,escape response when prodded,"fish reared in nicotine [4]; 5.0 ug/ml, 4 d.p.f.",escape response as above
same,survival,"fish reared in nicotine [4]; 5.0 ug/ml, 4 d.p.f.",all alive
same,escape response when prodded,"fish reared in nicotine [4]; 25 ug/ml, 3 d.p.f.",twitch but no escape response when prodded
same,survival,"fish reared in nicotine [4]; 25 ug/ml, 3 d.p.f.",all alive
same,escape response when prodded,"fish reared in nicotine [4]; 25 ug/ml, 4 d.p.f.",twitch but no escape response when prodded
same,survival,"fish reared in nicotine [4]; 25 ug/ml, 4 d.p.f., 5 fish per group","4 dead, 1 alive"
same,escape response when prodded,"fish reared in nicotine [4]; 50 ug/ml, 3 d.p.f.",twitch but no escape response when prodded
same,survival,"fish reared in nicotine [4]; 50 ug/ml, 3 d.p.f.",all alive
same,survival,"fish reared in nicotine [4]; 50 ug/ml, 4 d.p.f.","all, dead"
same,toxicity,fish reared in nicotine [5]; 25 ug/ml in fish water from 2 dpf,Toxicity was seen
same,toxicity,fish reared in nicotine [5]; 50 ug/ml in fish water from 2 dpf,Toxicity was seen
same,fish attracted to nicotine impregnated methyl cellulose,fish reared in nicotine [5]; by 4 mins,2 fish
same,fish attracted to nicotine impregnated methyl cellulose,fish reared in nicotine [5]; by 5 mins,3 fish
same,fish attracted to nicotine impregnated methyl cellulose,fish reared in nicotine [5]; by 15 mins,4 fish
same,response/preference to nicotine,fish reared in nicotine [5]; previously bathed in 0.5 ug/ml,no response/preference
same,response/preference to nicotine,fish reared in nicotine [5]; previously bathed in 2.5 ug/ml,no response/preference

# Source: US20060115895A1, “Fish disease models and uses thereof” (priority 2002, published 2006)
